Laboratory results from publication PMC6151589, “Identification of Optically Active Pyrimidine Derivatives as Selective 5-HT2C Modulators” (Molecules : A Journal of Synthetic Chemistry and Natural …, 2017).
Read-outs that look alike come from different tables or passages of the source.

Experiments:
5-HT2C = target: T1, 5-HT2C (Homo sapiens, UniProt P28335); assay: radioligand displacement, membranes; type: binding
T1 construct: gene HTR2C; human recombinant receptor; crude membrane fractions of transfected cells (CHO-K1; HEK293 or CHO)
T1 sequence (P28335 33-458): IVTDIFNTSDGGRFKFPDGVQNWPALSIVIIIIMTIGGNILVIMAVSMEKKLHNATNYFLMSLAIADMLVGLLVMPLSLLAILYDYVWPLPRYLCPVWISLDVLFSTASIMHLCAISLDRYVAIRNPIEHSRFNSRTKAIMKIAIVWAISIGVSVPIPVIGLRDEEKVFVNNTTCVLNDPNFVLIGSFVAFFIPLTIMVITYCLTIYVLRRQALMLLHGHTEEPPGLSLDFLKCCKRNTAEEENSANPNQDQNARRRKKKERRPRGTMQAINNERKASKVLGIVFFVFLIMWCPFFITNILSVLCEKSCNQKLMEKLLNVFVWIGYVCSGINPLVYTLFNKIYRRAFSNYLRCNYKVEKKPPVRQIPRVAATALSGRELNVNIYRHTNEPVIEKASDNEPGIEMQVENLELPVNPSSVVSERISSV
Source text: radioligand displacement, membranes on 5-HT2C

5-HT2A = target: T2, 5-HT2A (Homo sapiens, UniProt P28223); assay: biochemical; set-up: species or system HEK293 or CHO; competitive radioligand binding on crude membranes, filtration and scintillation counting
T2 construct: gene HTR2A; human recombinant receptor; crude membrane fractions of transfected HEK293 or CHO cells
T2 sequence (P28223 whole entry): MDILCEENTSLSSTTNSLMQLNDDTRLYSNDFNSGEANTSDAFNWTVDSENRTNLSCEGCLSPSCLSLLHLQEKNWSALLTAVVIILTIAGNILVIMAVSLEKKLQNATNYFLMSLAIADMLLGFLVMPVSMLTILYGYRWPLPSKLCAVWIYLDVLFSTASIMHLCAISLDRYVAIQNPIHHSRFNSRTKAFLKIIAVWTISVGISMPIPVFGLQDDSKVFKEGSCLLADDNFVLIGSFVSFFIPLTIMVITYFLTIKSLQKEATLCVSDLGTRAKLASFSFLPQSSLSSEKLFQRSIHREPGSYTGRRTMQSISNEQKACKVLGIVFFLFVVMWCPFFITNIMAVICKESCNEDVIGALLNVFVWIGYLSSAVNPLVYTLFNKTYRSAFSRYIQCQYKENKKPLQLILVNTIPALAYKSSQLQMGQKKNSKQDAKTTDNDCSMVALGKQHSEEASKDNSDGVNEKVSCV
Protocol: Eleven dilutions (5 × assay concentration) of the test and reference compounds (Table S1) were prepared in standard binding buffer (50 mM tris(hydroxymethyl)-aminomethane-HCl (Tris-HCl), 10 mM MgCl2, 1 mM ethylenediaminetetraacetate (EDTA), pH 7.4) by serial dilution: 0.05 nM, 0.5 nM, 1.5 nM, 5 nM, 15 nM, 50 nM, 150 nM, 500 nM, 1.5 μM, 5 μM, and 50 μM. The radioligand (Table S3) was diluted to five times the assay concentration in standard binding buffer. Aliquots ([…]) of the radioligand were dispensed into the wells of a 96-well plate containing […] of standard binding buffer. Triplicate aliquots ([…]) of the test and reference compound dilutions were then added. Finally, crude membrane fractions ([…]) of cells (HEK293 or CHO) expressing human recombinant receptors were dispensed into each well. A total of […] of the reaction mixtures was incubated at room temperature and shielded from light for 1.5 h, and was then harvested by rapid filtration onto Whatman GF/B glass fiber filters presoaked with 0.3% polyethyleneimine, by using a 96-well Brandel harvester (Gaithersburg, MD, USA). Four rapid washes were performed with chilled standard binding buffer (500 mL) to decrease nonspecific binding. Filters were placed in 6 mL scintillation tubes and allowed to dry overnight. The next day, 4-mL of EcoScint scintillation cocktail (National Diagnostics) was added to each tube. The tubes were capped, labeled, and counted by liquid scintillation counting. The filter mats were dried, and the scintillant was melted onto the filters, then the radioactivity retained on the filters was counted in a Microbeta scintillation counter. The IC50 values were obtained by using the Prism 4.0 program (GraphPad Software, La Jolla, CA, USA) and were converted into Ki values. Each compound was tested at least in triplicate. With each enantiomer (R)- or (S)-5d and 5e in hand, the optically active pyrimidine derivatives 4d–4e were synthesized following the same reaction sequences (Scheme 3). Finally, compounds 4d and 4e were assessed for their binding affinity to 5-HT2 receptor subtypes by radioligand binding assays. […] A further evaluation of these compounds for other 5-HT receptor subtypes was also performed and is provided in the supplementary data (Table S2). […] Considering the potencies and selectivities of 4, we can conclude that (R,R)-4e would be a viable candidate for a selective 5-HT2C modulator.

5-HT2B = target: T3, 5-HT2B (Homo sapiens, UniProt P41595); assay: radioligand displacement, membranes; type: binding
T3 construct: gene HTR2B; human recombinant receptor; crude membrane fractions of transfected HEK293 or CHO cells
T3 sequence (P41595 whole entry): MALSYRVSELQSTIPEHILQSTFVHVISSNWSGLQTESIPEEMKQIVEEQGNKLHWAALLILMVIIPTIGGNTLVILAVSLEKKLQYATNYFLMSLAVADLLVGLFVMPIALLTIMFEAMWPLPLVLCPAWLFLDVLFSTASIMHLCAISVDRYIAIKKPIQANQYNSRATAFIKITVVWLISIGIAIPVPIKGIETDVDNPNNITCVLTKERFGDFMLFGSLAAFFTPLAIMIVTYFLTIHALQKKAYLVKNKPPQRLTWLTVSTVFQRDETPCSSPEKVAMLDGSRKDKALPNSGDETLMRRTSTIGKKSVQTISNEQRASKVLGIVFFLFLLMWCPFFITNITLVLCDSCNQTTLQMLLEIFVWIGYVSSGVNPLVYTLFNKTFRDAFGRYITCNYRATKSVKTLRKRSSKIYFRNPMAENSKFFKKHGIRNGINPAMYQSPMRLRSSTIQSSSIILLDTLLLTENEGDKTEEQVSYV
Source text: radioligand displacement, membranes on 5-HT2B

C[C@H](Oc1nc(N2CCNC[C@H]2C)ncc1F)c1ccc(F)cc1 [(S,R)-4e, 5-Fluoro-4-((S)-1-(4-fluorophenyl)ethoxy)-2-((R)-2-methylpiperazin-1-yl)pyrimidine]
Ki (5-HT2C): 23 nM
inhibition at 10 µM (5-HT2A): 64.8%
Ki (5-HT2B): 128 nM

C[C@H](Oc1nc(N2CCNC[C@H]2C)ncc1F)c1cccc(F)c1 [(S,R)-4d, 5-Fluoro-4-((S)-1-(3-fluorophenyl)ethoxy)-2-((R)-2-methylpiperazin-1-yl)pyrimidine]
Ki (5-HT2C): 14 nM
inhibition at 10 µM (5-HT2A): 82.4%
Ki (5-HT2B): 67 nM

C[C@@H]1CNCCN1c1ncc(F)c(O[C@H](C)c2ccc(F)cc2)n1 [(R,R)-4e, 5-Fluoro-4-((R)-1-(4-fluorophenyl)ethoxy)-2-((R)-2-methylpiperazin-1-yl)pyrimidine]
Ki (5-HT2C): 4 nM
Ki (5-HT2B): 19 nM

C[C@H](Cc1cccc(F)c1)Oc1nc(N2CCNC[C@H]2C)ncc1F [compound 3, pyrimidine analogue 3]
inhibition at 10 µM (5-HT2A): 95.6%
Ki (5-HT2B; pH […] MgCl2, room temperature, reference compound, may stem from the authors' earlier study (ref […])): 7.9 nM

C[C@@H]1CNCCN1c1ncc(F)c(O[C@H](C)c2cccc(F)c2)n1 [(R,R)-4d, 5-Fluoro-4-((R)-1-(3-fluorophenyl)ethoxy)-2-((R)-2-methylpiperazin-1-yl)pyrimidine]
Ki (5-HT2C): 1.2 nM
inhibition at 10 µM (5-HT2A): 93.3%
Ki (5-HT2B): 2.6 nM
